The results in this text go back to patent US11274101B2, “Heterocyclic compound” (Takeda Pharmaceutical Company Limited, priority 2017, dated 2022).

In general, inhibition refers to the relative decrease from the control value, in per cent.

The experiment has as its target T1, His-hMAGL (recombinant polyhistidine tagged human MAGL protein) (Homo sapiens, UniProt Q99685).
T1 construct: made in house; host or cells: E. coli BL21(DE3)
T1 sequence (Q99685 1-303): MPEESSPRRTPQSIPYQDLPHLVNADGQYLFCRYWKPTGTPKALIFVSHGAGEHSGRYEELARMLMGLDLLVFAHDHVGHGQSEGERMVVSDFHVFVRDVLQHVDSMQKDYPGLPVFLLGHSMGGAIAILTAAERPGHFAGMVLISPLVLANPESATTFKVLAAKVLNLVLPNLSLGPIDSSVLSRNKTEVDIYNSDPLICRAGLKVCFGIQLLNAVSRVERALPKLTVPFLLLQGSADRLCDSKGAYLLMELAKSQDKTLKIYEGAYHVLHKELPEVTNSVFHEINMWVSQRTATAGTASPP
Kind of experiment: Measurement of MAGL inhibitory activity (arachidonic acid production from 2-arachidonylglycerol, RapidFire-mass spectrometry). It counts as biochemical. Conditions: test compound 10 μM; MAGL inhibitory rate. The procedure:
The His-hMAGL obtained above was diluted with enzyme reaction buffer (10 mM Tris-HCl, pH 7.5, 1 mM EDTA, 0.025 (w/v) % Triton X-100, 0.01% Bovine serum albumin) to a concentration of 7.5 ng/mL. To each well of a 384 well assay plate (Greiner 781280) was added a solution (5 μL) of a test compound dissolved in dimethyl sulfoxide (DMSO), which was diluted with the above-mentioned enzyme reaction buffer, then His-hMAGL solution (5 μL) diluted to a concentration of 7.5 ng/mL was added, and the mixture was incubated at room temperature for 60 min. Thereafter, to each well was added 5 μL of 150 μM 2-arachidonylglycerol (Tocris Bioscience), and the mixture was incubated at room temperature for 10 min. Then, 10 μL of 2% formic acid (Wako Pure Chemical Industries, Ltd.) was added to stop the reaction. Furthermore, acetonitrile (50 μL) containing 3 μM arachidonic acid-d8 (Cayman Chemical Company) was added and the mixture was stirred.
The amount of arachidonic acid in the obtained enzyme reaction mixture was calculated by measuring by RapidFire-mass spectrometry and correcting by the amount of arachidonic acid-d8. High Throughput online solid phase extraction was performed using RapidFire 300™ system (Agilent Technologies, Inc.). Samples were loaded on SPE C4 cartridge (Agilent Technologies, Inc.) and desalted with 0.2 (v/v) % acetic acid (Wako Pure Chemical Industries, Ltd.) in ultrapure water/acetonitrile (70/30, v/v) at a flow rate of 1.5 mL/min, eluted at a flow rate of 0.5 mL/min with 0.2 (v/v) % acetic acid dissolved in acetonitrile/ultrapure water (90/10, v/v), and injected into the mass spectrometry part. The injection needle was washed with ultrapure water (500 millisecond) and acetonitrile (500 millisecond) to minimize carry-over. The suction time (injection loop 5 μL), load/cleansing time, elution time and re-equilibration time were adjusted to 300, 3000, 4250 and 1000 milliseconds, respectively, and the total cycle time was adjusted to about 10.0 seconds. The RapidFire300 system was controlled by RapidFire UI software version 3.6 (Agilent Technologies, Inc.).
The mass spectrometry of the resultant product was performed using API4000™ triple quadrupole mass spectrometer (AB SCIEX) equipped with an electrospray ion sauce (TurboIon Spray™) in a negative selected reaction monitoring (SRM) mode. The conditions of SRM are shown below. The parameters of the instrument were optimized as follows: capillary temperature 600° C., ion spray voltage −4.5 kV, collision gas 8, curtain gas 15 psi, ion source gas 1 60 psi, ion source gas 2 60 psi. The mass spectrometer was controlled by Analyst™ software version 1.5.1 (AB SCIEX). The peak area integration was analyzed using RapidFire integrator software version 3.6 (Agilent Technologies, Inc.).
MAGL inhibitory rate (%) was calculated according to the following calculation formula. (1-(arachidonic acid production amount of test compound addition group−arachidonic acid production amount of enzyme-free group)+(arachidonic acid production amount of test compound-free group−arachidonic acid production amount of enzyme-free group))×100
With `O=C1NC2(CO1)CN(C(=O)O[C@H]1C[C@@H](Oc3ccc(F)c(F)c3F)C1)C2` [Example 51, cis-3-(2,3,4-trifluorophenoxy)cyclobutyl 6-oxo-7-oxa-2,5-diazaspiro[3.4]octane-2-carboxylate], the inhibition at 10 µM was determined as 99%.

As to `O=C1NC2(CO1)CN(C(=O)O[C@H]1C[C@H](Oc3ccc(F)c(F)c3F)C1)C2` [Example 39, trans-3-(2,3,4-trifluorophenoxy)cyclobutyl 6-oxo-7-oxa-2,5-diazaspiro[3.4]octane-2-carboxylate], the inhibition at 10 µM was found to be 100%.

In the case of `O=C1NC2(CO1)CN(C(=O)OC[C@H]1C[C@@H](Oc3ccc(C(F)(F)F)cc3Cl)C1)C2` [Example 26, (cis-3-(2-chloro-4-(trifluoromethyl)phenoxy)cyclobutyl)methyl 6-oxo-7-oxa-2,5-diazaspiro[3.4]octane-2-carboxylate], the inhibition at 10 µM was found to be 100%.

Take `Cc1ccc(O[C@H]2C[C@@H](OC(=O)N3CC4(COC(=O)N4)C3)C2)cc1F` [Example 45, cis-3-(3-fluoro-4-methylphenoxy)cyclobutyl 6-oxo-7-oxa-2,5-diazaspiro[3.4]octane-2-carboxylate]: the inhibition at 10 µM was found to be 98%.

Consider `Cc1ccc(O[C@H]2C[C@@H](OC(=O)N3CC4(COC(=O)N4)C3)C2)c(F)c1` [Example 56, cis-3-(2-fluoro-4-methylphenoxy)cyclobutyl 6-oxo-7-oxa-2,5-diazaspiro[3.4]octane-2-carboxylate], for which the inhibition at 10 µM amounted to 101%.

`O=C1NC2(CO1)CN(C(=O)O[C@H]1C[C@@H](COc3ccc(C(F)(F)F)cc3F)C1)C2` [Example 19, cis-3-((2-fluoro-4-(trifluoromethyl)phenoxy)methyl)cyclobutyl 6-oxo-7-oxa-2,5-diazaspiro[3.4]octane-2-carboxylate]: the inhibition at 10 µM was 98%.

Take `O=C1NC2(CO1)CN(C(=O)OC[C@H]1C[C@@H](Oc3c(F)cc(F)cc3F)C1)C2` [Example 23, (cis-3-(2,4,6-trifluorophenoxy)cyclobutyl)methyl 6-oxo-7-oxa-2,5-diazaspiro[3.4]octane-2-carboxylate]: the inhibition at 10 µM was determined as 100%.

For the compound `Cc1cc(F)ccc1O[C@H]1C[C@@H](OC(=O)N2CC3(COC(=O)N3)C2)C1` [Example 55, cis-3-(4-fluoro-2-methylphenoxy)cyclobutyl 6-oxo-7-oxa-2,5-diazaspiro[3.4]octane-2-carboxylate], the inhibition at 10 µM came out at 100%.

In the case of `O=C1NC2(CO1)CN(C(=O)O[C@H]1C[C@@H](OCc3ccc(C(F)(F)F)c(Cl)c3)C1)C2` [Example 11, cis-3-((3-chloro-4-(trifluoromethyl)benzyl)oxy)cyclobutyl 6-oxo-7-oxa-2,5-diazaspiro[3.4]octane-2-carboxylate], the inhibition at 10 µM turned out to be 100%.

On to `Cc1ccc(O[C@H]2C[C@@H](OC(=O)N3CC4(COC(=O)N4)C3)C2)cc1` [Example 53, cis-3-(4-methylphenoxy)cyclobutyl 6-oxo-7-oxa-2,5-diazaspiro[3.4]octane-2-carboxylate], for which the inhibition at 10 µM was found to be 101%.

On to `O=C1NC2(CO1)CN(C(=O)O[C@H]1C[C@@H](Oc3cccc(Cl)c3)C1)C2` [Example 49, cis-3-(3-chlorophenoxy)cyclobutyl 6-oxo-7-oxa-2,5-diazaspiro[3.4]octane-2-carboxylate], for which the inhibition at 10 µM was 100%.

Turning to `O=C1NC2(CO1)CN(C(=O)O[C@H]1C[C@@H](COCc3ccc(C(F)(F)F)cc3F)C1)C2` [Example 36, cis-3-(((2-fluoro-4-(trifluoromethyl)benzyl)oxy)methyl)cyclobutyl 6-oxo-7-oxa-2,5-diazaspiro[3.4]octane-2-carboxylate], the inhibition at 10 µM came to 100%.

Consider `O=C1NC2(CO1)CN(C(=O)O[C@H]1CC[C@H](Oc3ccc(C(F)(F)F)cc3F)CC1)C2` [Example 37, trans-4-(2-fluoro-4-(trifluoromethyl)phenoxy)cyclohexyl 6-oxo-7-oxa-2,5-diazaspiro[3.4]octane-2-carboxylate], for which the inhibition at 10 µM came to 101%.
